Data on two molecules can be found in ChEMBL document CHEMBL4334495, “Design and Biological Evaluation of m-Xylene Thioether-Stapled Short Helical Peptides Targeting the HIV-1 gp41 Hexameric Coiled-Coil Fusion Complex” (J Med Chem, 2019).

For orientation: EC50 means the concentration that produces a half-maximal response.

In test [1] the target is Envelope glycoprotein gp160 (Human immunodeficiency virus 1) (UniProt Q6QLK5). The test is described as follows: Ratio of EC50 for inhibition of HIV1 gp41-induced cell-cell fusion between viral envelope expressing human HL2/3 cells to CD4/CCR5 receptor expressing TZM-bl cells in absence of HP23 to EC50 for inhibition of HIV1 gp41-induced cell-cell fusion between viral envelope expressing human HL2/3 cells to CD4/CCR5 receptor expressing TZM-bl cells at 4:1 ratio of hCS6ERE to compound.

The subject of test [2] is Human immunodeficiency virus 1. The test is described as follows: Antiviral activity against X4 tropic HIV-1 subtype-B 3B infected in human MT2 cells or CEMx174 5.25 M7 cells assessed as reduction in p24 Gag protein production at 12:1 ratio of hCS6ERE to compound measured at 4 days post-infection by ELISA. In kind it is functional, cell-based, HIV-1 group M. The conditions noted are these: Human immunodeficiency virus 1, 3B, 96 h.

Test [3] has as its system Human immunodeficiency virus 1. The test is described as follows: Ratio of EC50 for antiviral activity against HIV1 NL4-3 infected in human MT2 cells or CEMx174 5.25 M7 cells in absence of hCS6ERE to EC50 for antiviral activity against HIV1 NL4-3 infected in human MT2 cells or CEMx174 5.25 M7 cells at 20:1 hCS6ERE to compound ratio. The class given is functional.
Test [4] has as its system Human immunodeficiency virus 1. The test is described as follows: Ratio of EC50 for antiviral activity against T20 resistant HIV1 NL4-3 harboring with V38E/N42S mutant infected in human MT2 cells or CEMx174 5.25 M7 cells in absence of hCS6ERE to EC50 for antiviral activity against T20 resistant HIV1 NL4-3 harboring with V38E/N42S mutant infected in human MT2 cells or CEMx174 5.25 M7 cells at 7000:1 hCS6ERE to compound ratio. The class given is functional.

The subject of test [5] is Human immunodeficiency virus 1. The test is described as follows: Antiviral activity against T20 resistant HIV1 NL4-3 harboring with V38E/N42T mutant infected in human MT2 cells or CEMx174 5.25 M7 cells assessed as reduction in p24 Gag protein production at 150:1 hCS6ERE to compound ratio measured at 4 days post-infection by ELISA. The class given is functional, organism-based.

Test [6] relates to Human immunodeficiency virus 1. The test is described as follows: Ratio of EC50 for antiviral activity against T20 resistant HIV1 NL4-3 harboring with V38E/N42T mutant infected in human MT2 cells or CEMx174 5.25 M7 cells in absence of hCS6ERE to EC50 for Antiviral activity against T20 resistant HIV1 NL4-3 harboring with V38E/N42T mutant infected in human MT2 cells or CEMx174 5.25 M7 cells at 150:1 hCS6ERE to compound ratio. In kind it is functional.

Test [7] relates to Human immunodeficiency virus 1. The test is described as follows: Ratio of EC50 for antiviral activity against T20 resistant HIV1 NL4-3 harboring with V38E/N42T mutant infected in human MT2 cells or CEMx174 5.25 M7 cells in absence of hCS6ERE to EC50 for Antiviral activity against T20 resistant HIV1 NL4-3 harboring with V38E/N42T mutant infected in human MT2 cells or CEMx174 5.25 M7 cells at 600:1 hCS6ERE to compound ratio. In kind it is functional.

In test [8] the target is Envelope glycoprotein gp160 (Human immunodeficiency virus 1) (UniProt Q6QLK5). The test is described as follows: Binding affinity to HIV1 GP41 using GP41 NHR derived N36 peptide assessed as formation of secondary structure at 10 uM incubated for 30 mins by CD spectroscopy.
For test [9] the target is unchanged. The test is described as follows: Binding affinity to HIV1 GP41 using GP41 NHR derived N36 peptide assessed as melting temperature at 10 uM incubated for 30 mins by CD spectroscopy.
The target is the same in test [10]. The test is described as follows: Ratio of EC50 for inhibition of HIV1 gp41-induced cell-cell fusion between viral envelope expressing human HL2/3 cells to CD4/CCR5 receptor expressing TZM-bl cells in absence of HP23 to EC50 for inhibition of HIV1 gp41-induced cell-cell fusion between viral envelope expressing human HL2/3 cells to CD4/CCR5 receptor expressing TZM-bl cells at 2:1 compound to HP23 ratio.

The subject of test [11] is Human immunodeficiency virus 1. The test is described as follows: Ratio of EC50 for antiviral activity against R5 tropic HIV-1 subtype-B Bal infected in human MT2 cells or CEMx174 5.25 M7 cells in absence of HP23 to EC50 for antiviral activity against R5 tropic HIV-1 subtype-B Bal infected in human MT2 cells or CEMx174 5.25 M7 cells at 12:1 compound to HP23 ratio. In kind it is functional, HIV-1 group M.

The subject of test [12] is Human immunodeficiency virus 1. The test is described as follows: Synergistic antiviral activity against HIV1 NL4-3 infected in human MT2 cells or CEMx174 5.25 M7 cells assessed as reduction in p24 Gag protein production by measuring combination index at 10:1 compound to HP23 ratio measured at 4 days post-infection by ELISA. In kind it is functional. For orientation: ELISA stands for enzyme-linked immunosorbent assay.

For test [13], the system named is Human immunodeficiency virus 1. The test is described as follows: Antiviral activity against HIV1 NL4-3 infected in human MT2 cells or CEMx174 5.25 M7 cells assessed as reduction in p24 Gag protein production at 10:1 compound to HP23 ratio measured at 4 days post-infection by ELISA. In kind it is functional, organism-based. The conditions noted are these: Human immunodeficiency virus 1, NL4-3, 96 h.

Test [14] relates to Human immunodeficiency virus 1. The test is described as follows: Synergistic antiviral activity against T20 resistant HIV1 NL4-3 harboring with V38E/N42S mutant infected in human MT2 cells or CEMx174 5.25 M7 cells assessed as reduction in p24 Gag protein production by measuring combination index at 14000:1 compound to HP23 ratio measured at 4 days post-infection by ELISA. In kind it is functional.

The test system of test [15] is Human immunodeficiency virus 1. The test is described as follows: Antiviral activity against T20 resistant HIV1 NL4-3 harboring with V38E/N42S mutant infected in human MT2 cells or CEMx174 5.25 M7 cells assessed as reduction in p24 Gag protein production at 7000:1 compound to HP23 ratio measured at 4 days post-infection by ELISA. In kind it is functional, organism-based.

The test system of test [16] is Human immunodeficiency virus 1. The test is described as follows: Antiviral activity against T20 resistant HIV1 NL4-3 harboring with V38E/N42S mutant infected in human MT2 cells or CEMx174 5.25 M7 cells assessed as reduction in p24 Gag protein production at 14000:1 compound to HP23 ratio measured at 4 days post-infection by ELISA. The class given is functional, organism-based.

Test [17] deals with Human immunodeficiency virus 1. The test is described as follows: Ratio of EC50 for antiviral activity against T20 resistant HIV1 NL4-3 harboring with V38E/N42S mutant infected in human MT2 cells or CEMx174 5.25 M7 cells in absence of HP23 to EC50 for antiviral activity against T20 resistant HIV1 NL4-3 harboring with V38E/N42S mutant infected in human MT2 cells or CEMx174 5.25 M7 cells at 3500:1 compound to HP23 ratio. In kind it is functional.

Test [18] has as its system Human immunodeficiency virus 1. The test is described as follows: Synergistic antiviral activity against T20 resistant HIV1 NL4-3 harboring with V38E/N42T mutant infected in human MT2 cells or CEMx174 5.25 M7 cells assessed as reduction in p24 Gag protein production by measuring combination index at 150:1 compound to HP23 ratio measured at 4 days post-infection by ELISA. In kind it is functional.

Test [19] has as its system Human immunodeficiency virus 1. The test is described as follows: Synergistic antiviral activity against T2635 resistant HIV1 LAI harboring Q66R mutant infected in human MT2 cells or CEMx174 5.25 M7 cells assessed as reduction in p24 Gag protein production by measuring combination index at 12.5:1 compound ratio measured at 4 days post infection by ELISA. The class given is functional, M:B_Lai.

Activity calls are given as the source filed them. No cut-off for these calls is given here. Starred links: 1 amine or outer side, 2 acyl side, 3 side chain; linkers in the order of their positions; H or OH if unused. Positions of bridges follow the written chain, without caps; N, C: chain ends. Non-standard residues stand in square brackets, D forms with d. Residues, ends and D or L forms follow the SMILES beside them. ξ: configuration not given here. mXylylene = c1cc(C[*:1])cc(C[*:2])c1; ξhCys = NC(CCS)C(=O)O

Chain of Envelope glycoprotein gp160 (Human immunodeficiency virus 1) (Q6QLK5 1-814): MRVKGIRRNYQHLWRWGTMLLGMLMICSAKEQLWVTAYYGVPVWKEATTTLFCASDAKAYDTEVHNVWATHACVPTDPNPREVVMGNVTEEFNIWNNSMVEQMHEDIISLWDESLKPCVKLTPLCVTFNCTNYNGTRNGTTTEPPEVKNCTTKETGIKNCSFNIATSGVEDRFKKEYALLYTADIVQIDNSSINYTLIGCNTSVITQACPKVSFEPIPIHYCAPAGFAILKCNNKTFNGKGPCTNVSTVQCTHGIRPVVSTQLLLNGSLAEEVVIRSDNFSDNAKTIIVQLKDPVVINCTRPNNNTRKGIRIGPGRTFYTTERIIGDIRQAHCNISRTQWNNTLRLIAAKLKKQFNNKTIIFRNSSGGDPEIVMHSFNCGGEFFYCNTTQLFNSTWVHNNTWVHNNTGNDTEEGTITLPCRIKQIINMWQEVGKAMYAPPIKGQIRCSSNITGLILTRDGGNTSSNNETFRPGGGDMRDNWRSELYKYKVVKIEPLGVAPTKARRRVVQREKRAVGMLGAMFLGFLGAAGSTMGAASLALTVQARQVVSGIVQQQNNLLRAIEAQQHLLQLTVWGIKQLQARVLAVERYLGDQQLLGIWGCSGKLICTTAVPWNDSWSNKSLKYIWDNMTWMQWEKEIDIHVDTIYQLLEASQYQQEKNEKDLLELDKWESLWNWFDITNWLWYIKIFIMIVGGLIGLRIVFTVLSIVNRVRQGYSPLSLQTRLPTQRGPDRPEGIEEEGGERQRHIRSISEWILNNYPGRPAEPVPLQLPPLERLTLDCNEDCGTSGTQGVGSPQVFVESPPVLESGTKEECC

For the molecule H-EMTWEEWEKKIEEYTKKIEEILK-OH, the Ratio EC50 in [1] worked out at 6.2; in [3] it was 4.9; in test [4], 3.5; in test [6], 1.9; in test [7], 5.1. For the same molecule, the EC50 in test [2] turned out to be 0.9 nM; in [5], 2.2 nM.
With `CC[C@H](C)[C@H](NC(C)=O)C(=O)N[C@@H](CCC(=O)O)C(=O)N[C@@H](CCC(=O)O)C(=O)N[C@@H](CC(C)C)C(=O)N[C@H](C(=O)NC1CCSCc2cccc(c2)CSCCC(C(=O)N[C@@H](CCC(N)=O)C(=O)N[C@@H](CCC(N)=O)C(=O)N[C@@H](CCCNC(=N)N)C(=O)N[C@@H](CCCCN)C(=O)N[C@@H](CC(N)=O)C(=O)N[C@@H](CCC(=O)O)C(=O)N[C@@H](CCC(=O)O)C(=O)N[C@@H](C)C(=O)N[C@@H](CC(C)C)C(=O)N[C@@H](CCCNC(=N)N)C(=O)N[C@@H](CCC(=O)O)C(=O)N[C@@H](CC(C)C)C(N)=O)NC(=O)[C@H](CCC(N)=O)NC(=O)[C@H](C)NC(=O)[C@H](C)NC1=O)[C@@H](C)CC` (some centres undefined) (Ac-IEELI[ξhCys]AAQ[ξhCys]QQRKNEEALREL-NH2; linker 6-10 via mXylylene), the result in [8] was Active. The Tm in [9] turned out to be 57.6 °C. Further, the Ratio EC50 in [10] amounted to 2; in [11] it was 2.6; in [17], 3.4. In addition, the CI in test [12] came to 0.7; in test [14], 0.6; in test [18], 0.9; in [19], 0.7. Also, the EC50 stood at 9 nM in test [13], 2520 nM in [15] and 3170 nM in test [16].
